From US20090068207A1, “Compositions Containing Beta 2-Glycoprotein I-Derived Peptides for the Prevention and/or Treatment of Vascular Disease” (Vascular Biogenics Ltd., priority 2005, published 2009)
Where “and” joins values, the source holds several entries; their conditions need not be identical. Equal values may be shown once.

Experiments:
LDL-RD mice [1] = test: Aortic sinus lesion area after oral administration, Western diet; assay type: in vivo; conditions: for Aortic sinus lesion (μm^2): End, oral 100 μg, mean ± S.E
Experimental: Oral Tolerance: For comparison, oral tolerance to plaque-associated molecules was induced by feeding […] of antigen every other day (for a detailed account of induction of oral tolerance, see U.S. patent application Ser. No. 09/806,400 to Shoenfeld et al filed Sep. 30, 1999), in a similar regimen to the nasal tolerance. LDL-RD mice were fed by a nasogastric tube, five doses (every other day) of human or bovine β2GPI in PBS in two different concentrations (500 and 50 μg/dose).
Oral tolerance to β2GPI-derived peptides, alone or in combination was induced by feeding 100 μg of the peptides (prepared in PBS, 0.2 ml), as detailed hereinabove, every other day for a total of 5 doses of 100 μg. One day following the last feeding, all mice were switched from chow-diet to an atherogenic “Western” diet and sacrificed five weeks later.
(§1) Assessment of Atherosclerosis: Quantification of atherosclerotic fatty streak lesions was done by calculating the lesion size in the aortic sinus as previously described (16) and by calculating the lesion size in the aorta. Briefly, after perfusion with saline Tris EDTA, the heart and the aorta were removed from the animals and the peripheral fat cleaned carefully. The upper section of the heart was embedded in OCT medium (10.24% w/w polyvinyl alcohol; 4.26% w/w polyethylene glycol; 85.50% w/w nonreactive ingredients) and frozen. Every other section (10 μm thick) throughout the aortic sinus (400 μm) was taken for analysis. The distal portion of the aortic sinus was recognized by the three valve cusps that are the junctions of the aorta to the heart. […] Lesion areas per section were scored on a grid (17) by an observer counting unidentified, numbered specimens. The aorta was dissected from the heart and surrounding adventitious tissue was removed. Fixation of the aorta and Sudan staining of the vessels were performed as previously described (21).
LDL-receptor deficient (LDL-RD; LDLR −/−) mice created on a C57BL/6 background develop accelerated atherosclerosis when fed a high cholesterol diet, but not when fed a regular chow diet. In order to determine whether mucosal administration of the plaque antigen β2GPI could suppress atherogenic processes, LDL-RD mice were fed low, oral tolerance inducing doses of human and bovine β2GPI, and the assessed for alterations in response to diet.

lymph node cells = test: Lymph node cell proliferation (stimulation index) to oxLDL after oral administration; assay type: in vivo, mice; conditions: oral, LDL-RD mice immunized with OxLDL; for reduction in Stimulation Index of OxLDL-sensitized lymph node cells / Stimulation index / effect on Stimulation Index of sensitized lymph node cells in response to OxLDL: 3 doses of 100 μg; for Stimulation index: OxLDL challenge, mean ± S.E.
Experimental: Proliferation was measured by the incorporation of [^3H] thymidine into DNA during the final 12 h of incubation. The results were computed as stimulation index: the ratio of the mean cpm of the antigen to the mean background cpm obtained in the absence of the antigen.
[…] Three days after the final administration of peptides, the mice were immunized with OxLDL in incomplete Freund's adjuvant, as described in the Examples above, and lymph node cells assessed for antigen (OxLDL) stimulation of proliferation 10 days later. Proliferation was assessed by incorporation of thymidine, expressed as the Stimulation Index, as described.

LDL-RD mice [2] = test: Aortic sinus lesion area after intraperitoneal immunization with incomplete Freund's adjuvant; assay type: in vivo; conditions: for Aortic sinus lesion (μm^2): End, intraperitoneal with incomplete Freund's adjuvant, head 100 μg, mean ± S.E
Experimental: Intraperitoneal immunization with human β2GPI-derived peptides: human β2GPI-derived peptides were dissolved in PBS and mixed with equal volumes of Freund's incomplete adjuvant. […] One week following the last immunization, the diet was switched from chow to atherogenic “Western” diet for five weeks, and then the mice were sacrificed.
as §1
Immunization with Human β2GPI-derived peptides mildly attenuates the early atherogenesis in LDL RD mice: In order to compare the effects of different modes of administration of human β2GPI-derived peptides on atherosclerosis, human β2GPI-derived peptides and human β2GPI were administered intraperitoneally (IP) with incomplete Freund's adjuvant, in LDL RD mice, effectively immunizing the mice, as opposed to the tolerance effected by mucosal administration.
Data presented in FIG. 11, and Table 7, clearly indicates a non-specific inhibitory effect of immunization (see PBS vs Non-immunized) on the size of the aortic sinus lesions in the susceptible LDL RD mice. On an average, immunization with the human β2GPI-derived peptides was equally, if not more, effective in inhibiting atherogenesis as immunization with human β2GPI, or with PBS prepared in incomplete Freund's adjuvant. In contrast to the protection achieved with mucosal administration, the different peptides S-1, S-2, S-3 and S-4 provided widely divergent, and diminished (34% or less) degrees of protection, as compared with controls.

LDL-RD mice [3] = test: Aortic sinus lesion area after nasal tolerance induction, Western diet; assay type: in vivo
Experimental: Nasal Tolerance: Nasal tolerance was induced by intranasal administration of oxidized LDL, β2GPI, β2GPI-derived peptides or HSP65, in a total volume of 10 μl PBS. Intranasal administration was performed on mildly sedated mice (12-16 weeks old), each mouse receiving 3 doses of antigen per dose, in the indicated concentrations, every other day. Atherogenesis was induced by 5 weeks of a Western diet initiated on the day following the last intranasal administration, or assessed (in Apo E KO mice) after 8 weeks on a chow diet. Controls received equal amounts of BSA and/or PBS, as indicated, in an identical regimen. Plasma was obtained for assessment of cholesterol and triglyceride levels from all mice, and the mice were sacrificed for evaluation of atherosclerosis, as described hereinbelow, after 5 weeks Western diet, or (in Apo E KO mice) after 8 weeks on a chow diet.
Assessment of Atherosclerosis: Quantification of atherosclerotic fatty streak lesions was done by calculating the lesion size in the aortic sinus as previously described (16) and by calculating the lesion size in the aorta. Briefly, after perfusion with saline Tris EDTA, the heart and the aorta were removed from the animals and the peripheral fat cleaned carefully. The upper section of the heart was embedded in OCT medium (10.24% w/w polyvinyl alcohol; 4.26% w/w polyethylene glycol; 85.50% w/w nonreactive ingredients) and frozen. Every other section (10 μm thick) throughout the aortic sinus (400 μm) was taken for analysis. The distal portion of the aortic sinus was recognized by the three valve cusps that are the junctions of the aorta to the heart. Sections were evaluated for fatty streak lesions after processing and staining with oil-red O, according to Paigen et al (Atherosclerosis, 1987; 68:231-40). Lesion areas per section were scored on a grid (17) by an observer counting unidentified, numbered specimens. The aorta was dissected from the heart and surrounding adventitious tissue was removed. Fixation of the aorta and Sudan staining of the vessels were performed as previously described (21).
Mice were bled prior to feeding (Time 0) and at the conclusion of the experiment (End) for determination of lipid profile. Atherosclerosis was assessed in heart and aorta as described above, 8 weeks after the last feeding. Mice were weighed every 2 weeks during the experiment. All mice were fed water ad libitum and a normal chow-diet containing 4.5% fat by weight (0.02% cholesterol), up to the final antigen exposure, and then a “Western” diet until sacrifice.
Thus, nasal exposure to a low dose and an exceedingly low dose of recombinant human HSP 65 were compared for their effectiveness in suppressing atherogenesis in LDL-RD mice. 58 male 12-16 week old LDL-RD mice were divided into 4 groups.

ApoE-KO mice [4] = test: Aortic sinus lesion area after oral administration in ApoE-KO mice; assay type: in vivo; conditions: oral 50 μg, 5 doses
Source text: as §1, with “Fixation of the aorta and Sudan staining of the vessels were performed as previously described (21).” left out
In order to determine the protective effect of mucosal administration of β2GPI on development of atherosclerosis, adult ApoE-KO mice were treated with oral administration of human β2GPI. […] Lesion area calculated from cryosections of the aortic sinus were compared between control untreated 20 week old mice, and mice following 16 weeks oral administration of β2GPI or PBS. […]

ApoE-KO mice [5] = test: Aortic sinus lesion area after nasal administration in ApoE-KO mice; assay type: in vivo; conditions: End, nasal 10 μg/mouse, mean ± S.E
Experimental: Nasal Tolerance: Nasal tolerance was induced by intranasal administration of oxidized LDL, β2GPI, β2GPI-derived peptides or HSP65, in a total volume of 10 μl PBS. Intranasal administration was performed on mildly sedated mice (12-16 weeks old), each mouse receiving […] of antigen per dose, in the indicated concentrations, every other day. Atherogenesis was induced by 5 weeks of a Western diet initiated on the day following the last intranasal administration, or assessed (in Apo E KO mice) after 8 weeks on a chow diet. Controls received equal amounts of BSA and/or PBS, as indicated, in an identical regimen. Plasma was obtained for assessment of cholesterol and triglyceride levels from all mice, and the mice were sacrificed for evaluation of atherosclerosis, as described hereinbelow, after 5 weeks Western diet, or (in Apo E KO mice) after 8 weeks on a chow diet.
Assessment of Atherosclerosis: Quantification of atherosclerotic fatty streak lesions was done by calculating the lesion size in the aortic sinus as previously described (16) and by calculating the lesion size in the aorta. Briefly, after perfusion with saline Tris EDTA, the heart and the aorta were removed from the animals and the peripheral fat cleaned carefully. […] Lesion areas per section were scored on a grid (17) by an observer counting unidentified, numbered specimens. […]

SCKVPVKKATVVYQGERVKIQ [Peptide S-3]
Aortic sinus lesion (μm^2) (LDL-RD mice [1]): 29269 ± 3307 μm^2 | reduction in Stimulation Index of OxLDL-sensitized lymph node cells (lymph node cells): 93% | Stimulation index (lymph node cells): 20 ± 6 | Aortic sinus lesion (μm^2) (LDL-RD mice [2]): 45329 ± 14667 μm^2 | anti-atherogenic effect as compared to PBS+IFA (LDL-RD mice [2]; intraperitoneal immunization): without any significant anti-atherogenic effect

ECLPQHAMFGNDTITCTTHGN [Peptide S-2]
Aortic sinus lesion (μm^2) (LDL-RD mice [1]): 23636 ± 3857 μm^2 | effect on Stimulation Index of sensitized lymph node cells in response to OxLDL (lymph node cells): mildly reduced | Stimulation index (lymph node cells): 168 ± 72 | Aortic sinus lesion (μm^2) (LDL-RD mice [2]): 24050 ± 7755 μm^2

GDKVSFFCKNKE [Peptide S-4-4]
decrease of Stimulation Index as compared with PBS-treated controls (lymph node cells; 5 doses of 100 μg, OxLDL stimulation): ~50% and ~60%

VCPFAGILENGAVRYTTFEY [Peptide S-1]
Aortic sinus lesion (μm^2) (LDL-RD mice [1]): 26750 ± 4698 μm^2 | effect on Stimulation Index of sensitized lymph node cells in response to OxLDL (lymph node cells): mildly reduced | Stimulation index (lymph node cells): 246 ± 79 | Aortic sinus lesion (μm^2) (LDL-RD mice [2]): 29968 ± 6032 μm^2

HSP-65: recombinant mycobacterial heat shock protein HSP 65
Aortic sinus lesion (μm^2) (LDL-RD mice [3]; END, intranasal 10 μg/mouse every other day for 5 days, then Western diet, mean ± S.E): 44375 ± 5437 μm^2 | protection from atherogenesis (LDL-RD mice [3]; nasal, exceedingly low doses (1 μg/mouse)): approximately 70%

MLHGDKVSFFCKNKEKKCSYT [Peptide S-4]
Aortic sinus lesion (μm^2) (LDL-RD mice [1]): 21125 ± 2482 μm^2 | reduction of atherosclerosis (aortic sinus lesion size) as compared with BSA- and PBS-fed controls (LDL-RD mice [1]; oral 100 μg/dose, 5 doses, Western diet 5 weeks): 61% | reduction in Stimulation Index of OxLDL-sensitized lymph node cells (lymph node cells): 94% | Stimulation index (lymph node cells): 17 ± 10 | Aortic sinus lesion (μm^2) (ApoE-KO mice [4]; End, ApoE-KO mice): 81923 ± 9191 μm^2 | reduction of progression of atherosclerotic lesions compared to PBS controls (ApoE-KO mice [4]; then 8 weeks of chow diet, 10-11 week-old ApoE-KO mice): > 50% | Aortic sinus lesion (μm^2) (LDL-RD mice [2]): 23758 ± 5767 μm^2 | Aortic sinus lesion (μm^2) (ApoE-KO mice [5]): 107953 ± 10158 μm^2
